Experimental data from patent US20240002846A1, “COMPOSITIONS AND METHODS FOR THE DIAGNOSIS AND TREATMENT OF ITCH” (Duke University, priority 2020, published 2024).
Entries after “also recorded” stand apart in the source; their conditions may differ.

Key:
[1] = test system: extracellular release of miR-146a; assay: Extracellular release of miRs from cultured mouse keratinocytes (RT-qPCR); format: cell-based; settings: mouse keratinocytes
Method: Primary mouse keratinocytes were cultured following previous protocol (Chen et al. J. Biol. Chem. 2016, 291, 10252-10262). The epidermis from the back skin of newborn WT or keratinocyte-Trpv4 cKO mice was separated from the dermis by floating the skin on 0.25% trypsin (Gibco, Gaithersburg, MD) for 14-18 h at 4° C. Basal keratinocytes were separated from the cornified sheets by filtration through a […] cell strainer. Keratinocytes were plated on collagen I-coated dishes or glass coverslips and grown in EME media (Gibco, Gaithersburg, MD) containing 8% chelex (Bio-rad, Hercules, CA)-treated FBS with the final Ca^2+ adjusted to 0.05 mM, bovine pituitary extract (50 μg/mL), epidermal growth factor (5 ng/mL), and lx antibiotics/antimycotics (Gibco, Gaithersburg, MD) in a humidified incubator with 5% CO2 at 37° C. for 5-7 days until use. To knockdown Trpv4 in isolated keratinocytes from newborn keratinocyte-Trpv4 cKO mice, cells were treated with 4-OH tamoxifen at 500 nM for 72 h.
Measurement of released vesicles and extracellular miR-146a from cultured keratinocytes or sera Medium for the cultured keratinocytes was replaced with serum-free medium 2 h before LPC stimulation. […] Finally, cell-free supernatants were further purified using a Vesicular Isolation kit (Invitrogen, Waltham, MA) according to the manufacturer's instructions, with final product resuspended in ice-cold PBS. Total RNA extraction was then carried out using a Total RNA Isolation kit (Invitrogen, Waltham, MA). Enrichment for small RNAs was carried out by sequential increase in ethanol concentration and passing through glass-fiber filters. RNase free water was used to elute small RNAs in the final elution step. For human PBC sera or sera from ANIT-treated mice, RNA was isolated using Qiagen miRNeasy Plasma/Serum kit. cDNA synthesis from extracted RNAs was performed according to manufacturer's instructions (qSTAR miRNA kit, Origene). For qPCR, the stem-loop oligonucleotides specific for the following miRs are as follows: miR-146a-5p (GAGAACTGAATTCCATGGG, SEQ ID NO: 4), miR-let-7b (GAGGTAGTAGGTTGTGTGG, SEQ ID NO: 5), miR-125b-1 (CCCT GAGACCCTAACTTG, SEQ ID NO: 6), miR-203 (GTGGTTC TTGACAGTTCAAC, SEQ ID NO: 7), and miR-16-5p (AGCAGCAC GTAAATATTGGC, SEQ ID NO: 8). Primers were purchased from Integrated DNA Technologies company (Coralville, IA). qPCR reactions for each sample were run in triplicates, including no-template controls. MiR-16-5p was selected as a control due to the relative constancy of its expression in various cultured cell lines (Schwarzenbach et al. Clin. Chem. 2015, 61, 1333-1342). qPCR for this miR was performed in tandem with target miRs to determine the optimal normalization procedure. To investigate the effects of the specific TRPV4 inhibitors GSK205 or HC067047 and the specific MEK inhibitor U0126 on LPC-induced extracellular release of miR-146a, cells were incubated with the inhibitors for 15 min before stimulation. Control cells received the same volume of vehicle.
Vesicular release from cultured keratinocytes was quantified by detecting acetylcholinesterase (AChE) activity in the extracellular release fluid. (Gupta et al. Am. J. Physiol. Heart Circ. Physiol. 2007, 292, H3052-3056; Malik et al. Methods Mol. Biol. 2016, 1448, 237-248). CBQCA Protein Quantitation Kit (Molecular Probes, Eugene, OR) was used to assess the total protein amounts of each sample. Quantitation was carried out according to kit instructions (Fluorocet, Systems Biosciences, Palo Alto, CA). Briefly, vesicles were lysed to release esterase enzyme whose activity is measured using a florescence dye, excitation at 544 nm and emission at 590 nm. Fluostar Optima (BMG Labtech, Cary, NC) microplate reader was used to measure esterase activity. 500 ng protein equivalent of input was used per well. […]

[2] = test system: extracellular release of miR-146a; assay: Extracellular release of miR-146a from cultured human keratinocytes (RT-qPCR); format: cell-based
Method: Primary human keratinocytes were cultured as previously described (Chen et al. J. Biol. Chem. 2016, 291, 10252-10262). In brief, surgically discarded foreskin samples, obtained from Duke Children's Hospital in accordance to institutionally approved IRB protocol, were incubated with Dispase (Gibco, Gaithersburg, MD, 4 U/mL) for 12-16 h at 4° C. followed by 0.05% trypsin (Gibco, Gaithersburg, MD) for 10-20 min at 37° C. Cells were maintained in keratinocyte serum-free media (Invitrogen, Waltham, MA) with 5% CO2 at 37° C. and used at passage 2-3.
Measurement of released vesicles and extracellular miR-146a from cultured keratinocytes or sera Medium for the cultured keratinocytes was replaced with serum-free medium 2 h before LPC stimulation. Fifteen minutes after LPC, the supernatant of the cells was harvested and subjected to two steps of centrifugation (i) 300 g for 5 min to eliminate remaining cells, (ii) 16,000 g for 30 min to eliminate cell debris and apoptotic bodies. Finally, cell-free supernatants were further purified using a Vesicular Isolation kit (Invitrogen, Waltham, MA) according to the manufacturer's instructions, with final product resuspended in ice-cold PBS. Total RNA extraction was then carried out using a Total RNA Isolation kit (Invitrogen, Waltham, MA). […]

Row | Structure (SMILES) | effect of TRPV4 inhibitors on LPC-induced release of miR-146a ([1]; inhibitor 10 μM) | effect of TRPV4 inhibitors on LPC-induced release of miR-146a ([2]; inhibitor 10 μM) | effect of MEK inhibitor on LPC-induced release of miR-146a ([1]; 10 μM) | effect of MEK inhibitor on LPC-induced release of miR-146a ([2]; 10 μM)
1 | Cc1c(C(=O)Nc2cccc(C(F)(F)F)c2)cc(-c2ccccc2)n1CCCN1CCOCC1 [HC067047] | completely eliminated | completely eliminated | – | –
2 | N#CC(=C(/N)Sc1ccccc1N)/C(C#N)=C(\N)Sc1ccccc1N [U0126] | – | – | eliminated; also recorded: abolished | eliminated; also recorded: abolished
